Results as given in US20130165522A1, “GEL FORMULATIONS FOR THE TOPICAL USE OF 1-AMINO-ALKYLCYCLOHEXANE DERIVATIVES” (MERZ PHARMA GmbH & CO. KGaA, priority 2010, published 2013).

What was measured:
Staphylococcus aureus = test: Antibacterial activity; assay type: cell-based
Propionibacterium acnes = test: Antibacterial activity; assay type: cell-based

Structure (SMILES): CC1(C)CC(C)(C)CC(C)(N)C1 [neramexane, 1-amino-1,3,3,5,5-pentamethylcyclohexane]
- antibacterial activity (Staphylococcus aureus): exhibits antibacterial activity
- antibacterial activity (Propionibacterium acnes): exhibits antibacterial activity
